Here are results for nine compounds from PubChem BioAssay AID308 (DTP/NCI, 2004).

The test system of this assay is BDF1 mice, L1210 6-MP/6-TG resistant leukemia ip, survival T/C. The assay can be described thus: NCI In Vivo Anticancer Drug Screen. Data for tumor model L1210 Leukemia resistant to 6-MP and 6-Thioguanine; NSC 755, NSC 752 (intraperitoneal) in B6D2F1 (BDF1) mice. The conditions noted are these: endpoint: mean survival time, higher = longer survival. How it is done:
The antitumor activity of compounds was measured in mice bearing transplantable tumors. Survival or tumor size were measured and the results are expressed as the measurement made in the treated group (T) divided by the measurement made in the vehicle treated control group (C). The tumor model used in this assay is L1210 Leukemia resistant to 6-MP and 6-Thioguanine; NSC 755, NSC 752 (intraperitoneal) in B6D2F1 (BDF1) mice

Where [1] appears, read: dose: 50.0 mg/kg/injection, schedule: Q01DX015 (ip), vehicle: carboxymethylcellulose (CMC).
The mark [2] stands for this setting: dose: 125.0 mg/kg/injection, schedule: Q01DX015 (ip), vehicle: carboxymethylcellulose (CMC).

Structures are written as SMILES. “And” between values parts separate entries of the source, which are not always exact repeats. Equal entries are not always repeated. Inconclusive results and toxic doses are left out.

For the compound `O=C1C(NC(=O)C2CCCCC2)=C(N2CC2)C(=O)C(NC(=O)C2CCCCC2)=C1N1CC1`, the T/C is 99 % of control (dose: 31.0 mg/kg/injection, schedule: Q01DX Z (ip), vehicle: carboxymethylcellulose (CMC)); 101 % of control (dose: 62.5 mg/kg/injection, schedule: Q01DX Z (ip), vehicle: carboxymethylcellulose (CMC)); 93 % of control (dose: 93.0 mg/kg/injection, schedule: Q01DX Z (ip), vehicle: carboxymethylcellulose (CMC)); 87 % of control (dose: 125.0 mg/kg/injection, schedule: Q01DX Z (ip), vehicle: carboxymethylcellulose (CMC)); 92 % of control (dose: 187.0 mg/kg/injection, schedule: Q01DX Z (ip), vehicle: carboxymethylcellulose (CMC)); 90 % of control (dose: 250.0 mg/kg/injection, schedule: Q01DX Z (ip), vehicle: carboxymethylcellulose (CMC)).
In the case of `COC12C(COC(N)=O)C3=C(C(=O)C(C)=C(N)C3=O)N1CC1C2N1C` (centres undefined), the T/C reads like this: (dose: 1.3 mg/kg/injection, schedule: Q01DX015 (ip), vehicle: carboxymethylcellulose (CMC)) 166 % of control; (dose: 1.9 mg/kg/injection, schedule: Q01DX015 (ip), vehicle: carboxymethylcellulose (CMC)) 120 % of control; (dose: 2.0 mg/kg/injection, schedule: Q01DX015 (ip), vehicle: carboxymethylcellulose (CMC)) 254 % of control; (dose: 2.9 mg/kg/injection, schedule: Q01DX015 (ip), vehicle: carboxymethylcellulose (CMC)) 181 % of control; (dose: 3.0 mg/kg/injection, schedule: Q01DX015 (ip), vehicle: carboxymethylcellulose (CMC)) 229 % of control; (dose: 4.4 mg/kg/injection, schedule: Q01DX015 (ip), vehicle: carboxymethylcellulose (CMC)) 123 % of control. Also, the T/C is, setting by setting: (dose: 4.5 mg/kg/injection, schedule: Q01DX015 (ip), vehicle: carboxymethylcellulose (CMC)) 189 % of control; (dose: 6.75 mg/kg/injection, schedule: Q01DX015 (ip), vehicle: carboxymethylcellulose (CMC)) 166 % of control.
Regarding `C=CCn1cnc2c(=S)nc[nH]c21`, the T/C reads like this: (dose: 18.0 mg/kg/injection, schedule: Q01DX015 (ip), vehicle: other) 103 % of control; (dose: 26.0 mg/kg/injection, schedule: Q01DX015 (ip), vehicle: other) 108 % of control; (dose: 40.0 mg/kg/injection, schedule: Q01DX015 (ip), vehicle: other) 101 % of control; (dose: 60.0 mg/kg/injection, schedule: Q01DX015 (ip), vehicle: other) 95 % of control.
On to `CC(=O)CSc1ncnc2nc[nH]c12`, for which the T/C by setting is: (dose: 3.12 mg/kg/injection, schedule: Q01DX015 (ip), vehicle: carboxymethylcellulose (CMC)) 93 % of control; (dose: 6.25 mg/kg/injection, schedule: Q01DX015 (ip), vehicle: carboxymethylcellulose (CMC)) 98 % of control; (dose: 12.5 mg/kg/injection, schedule: Q01DX015 (ip), vehicle: carboxymethylcellulose (CMC)) 103 % of control; (dose: 25.0 mg/kg/injection, schedule: Q01DX015 (ip), vehicle: carboxymethylcellulose (CMC)) 96 % of control; under setting [1], 96 % of control; (dose: 62.0 mg/kg/injection, schedule: Q01DX015 (ip), vehicle: carboxymethylcellulose (CMC)) 100 % of control. Moreover, the T/C by setting is: under setting [2], 100 % of control; (dose: 250.0 mg/kg/injection, schedule: Q01DX015 (ip), vehicle: carboxymethylcellulose (CMC)) 95 % of control.
For `OCC1OC(n2cnc3c(=S)nc[nH]c32)C(O)C1O` (centres undefined), the T/C was 114 % of control (dose: 37.5 mg/kg/injection, schedule: Q01DX Z (ip), vehicle: carboxymethylcellulose (CMC)); 93 % of control under setting [1]; 93 % of control (dose: 75.0 mg/kg/injection, schedule: Q01DX015 (ip), vehicle: carboxymethylcellulose (CMC)); 92 % of control (dose: 75.0 mg/kg/injection, schedule: Q01DX Z (ip), vehicle: carboxymethylcellulose (CMC)); 94 % of control (dose: 100.0 mg/kg/injection, schedule: Q01DX015 (ip), vehicle: carboxymethylcellulose (CMC)); 94 % of control (dose: 112.0 mg/kg/injection, schedule: Q01DX010 (ip), vehicle: carboxymethylcellulose (CMC)). The T/C is 100 % of control (dose: 120.0 mg/kg/injection, schedule: Q01DX001 (ip), vehicle: carboxymethylcellulose (CMC)); 90 % of control under setting [2]; 90 % of control (dose: 150.0 mg/kg/injection, schedule: Q01DX010 (ip), vehicle: carboxymethylcellulose (CMC)); 95 % of control (dose: 150.0 mg/kg/injection, schedule: Q01DX015 (ip), vehicle: carboxymethylcellulose (CMC)); 97 % of control (dose: 150.0 mg/kg/injection, schedule: Q01DX Z (ip), vehicle: carboxymethylcellulose (CMC)); 110 % of control (dose: 180.0 mg/kg/injection, schedule: Q01DX001 (ip), vehicle: alkali diluted with saline). Further, the T/C is, setting by setting: (dose: 180.0 mg/kg/injection, schedule: Q01DX001 (ip), vehicle: carboxymethylcellulose (CMC)) 100 % of control; (dose: 225.0 mg/kg/injection, schedule: Q01DX010 (ip), vehicle: carboxymethylcellulose (CMC)) 88 % of control; (dose: 270.0 mg/kg/injection, schedule: Q01DX001 (ip), vehicle: alkali diluted with saline) 103 % of control; (dose: 270.0 mg/kg/injection, schedule: Q01DX001 (ip), vehicle: carboxymethylcellulose (CMC)) 100 % of control; (dose: 300.0 mg/kg/injection, schedule: Q01DX010 (ip), vehicle: carboxymethylcellulose (CMC)) 91 % of control; (dose: 300.0 mg/kg/injection, schedule: Q01DX Z (ip), vehicle: carboxymethylcellulose (CMC)) 92 % of control. Moreover, the T/C was 99 % of control (dose: 400.0 mg/kg/injection, schedule: Q01DX001 (ip), vehicle: alkali diluted with saline); 96 % of control (dose: 400.0 mg/kg/injection, schedule: Q01DX001 (ip), vehicle: carboxymethylcellulose (CMC)); 102 % of control (dose: 600.0 mg/kg/injection, schedule: Q01DX001 (ip), vehicle: alkali diluted with saline); 101 % of control (dose: 600.0 mg/kg/injection, schedule: Q01DX001 (ip), vehicle: carboxymethylcellulose (CMC)); 100 % of control (dose: 900.0 mg/kg/injection, schedule: Q01DX001 (ip), vehicle: alkali diluted with saline).
Regarding `C=CC(CN1CC1)OC(C)=O` (centres undefined), the T/C is, setting by setting: (dose: 3.0 mg/kg/injection, schedule: Q01DX Z (ip), vehicle: saline) 116 % of control; (dose: 12.0 mg/kg/injection, schedule: Q01DX Z (ip), vehicle: saline) 150 % of control; (dose: 15.0 mg/kg/injection, schedule: Q01DX Z (ip), vehicle: saline) 91 % of control.
As to `CCCC(=O)OCC1OC(n2cnc3c(=S)nc[nH]c32)C(OC(=O)CCC)C1OC(=O)CCC` (centres undefined), the T/C reads like this: (dose: 6.25 mg/kg/injection, schedule: Q01DX Z (ip), vehicle: other) 99 % of control; (dose: 12.5 mg/kg/injection, schedule: Q01DX Z (ip), vehicle: other) 92 % of control; (dose: 25.0 mg/kg/injection, schedule: Q01DX009 (ip), vehicle: Klucel (hydroxypropylcellulose) (HPC)) 92 % of control; (dose: 25.0 mg/kg/injection, schedule: Q01DX Z (ip), vehicle: other) 90 % of control and 92 % of control; (dose: 50.0 mg/kg/injection, schedule: Q01DX009 (ip), vehicle: Klucel (hydroxypropylcellulose) (HPC)) 98 % of control; (dose: 50.0 mg/kg/injection, schedule: Q01DX Z (ip), vehicle: other) 96 % of control. Moreover, the T/C is, setting by setting: (dose: 100.0 mg/kg/injection, schedule: Q01DX009 (ip), vehicle: Klucel (hydroxypropylcellulose) (HPC)) 92 % of control; (dose: 100.0 mg/kg/injection, schedule: Q01DX Z (ip), vehicle: other) 90 % of control.
For `CCC1(Sc2ncnc3nc[nH]c23)C(=O)NC(=O)NC1=O`, the T/C (dose: 6.25 mg/kg/injection, schedule: Q01DX010 (ip), vehicle: alkali diluted with saline) is 104 % of control; the T/C (dose: 12.5 mg/kg/injection, schedule: Q01DX010 (ip), vehicle: alkali diluted with saline) is 96 % of control; the T/C (dose: 25.0 mg/kg/injection, schedule: Q01DX010 (ip), vehicle: alkali diluted with saline) is 107 % of control; the T/C (dose: 50.0 mg/kg/injection, schedule: Q01DX010 (ip), vehicle: alkali diluted with saline) is 102 % of control; the T/C (dose: 100.0 mg/kg/injection, schedule: Q01DX010 (ip), vehicle: alkali diluted with saline) was 104 % of control; the T/C (dose: 200.0 mg/kg/injection, schedule: Q01DX010 (ip), vehicle: alkali diluted with saline) was 107 % of control.
In the case of `NS(=O)(=O)c1ncnc2nc[nH]c12`, the T/C is 122 % of control (dose: 6.0 mg/kg/injection, schedule: Q01DX Z (ip), vehicle: carboxymethylcellulose (CMC)); 112 % of control (dose: 25.0 mg/kg/injection, schedule: Q01DX Z (ip), vehicle: saline); 96 % of control (dose: 50.0 mg/kg/injection, schedule: Q01DX Z (ip), vehicle: saline).
